pEC50: −log10 of the molar value. Structures can show the parent of a compound that is named as a salt.
Tests used:
Assay in all cases: Method 1: intracellular Ca2+ release (FLIPR, Calcium 5) in recombinant CHO-K1 cells
Format in all cases: cell-based
human S1PR1 receptor = biological target: T1, human S1PR1 receptor (Homo sapiens, UniProt P21453); settings: (1): determined with method 1; read-out: S1P1 EC50
T1 construct: host or cells: CHO-K1
Experimental: (§1) Agonistic activity was measured using two different methods, described below.
(§2) Method 1. Intracellular Ca^2+ Release
(§3) Agonist potency and intrinsic activity was assessed by measurement of intracellular Ca^2+ release. Recombinant CHO-K1 cells (Euroscreen, Brussels, Belgium) expressing human S1PR5, S1PR1, S1PR3 or S1PR4 receptors, aequorin, and GTP binding protein Gq/i5 were cultured using a medium containing nutrient mixture F-12 Ham (Sigma-Aldrich) with 10% FBS, and 100 μg/mL gentamicin and equilibrated at 5% CO2.
(§4) 15.000 cells in 20 μL medium were seeded into Biocoat poly-D-Lysine coated 384 well plates (Becton Dickinson #35-6663) and grown to 95% confluency after 24 h.
(§5) Culture medium was replaced by an assay buffer consisting of HBBS with Ca^2+ and Mg^2+ (Invitrogen #14025-050), 20 mmol/L Hepes (Sigma-Aldrich #H-3375), 2.5 mmol/L probenecid (Sigma-Aldrich #P-8761, and 0.1% BSA (Sigma-Aldrich #A-7030) pH 7.4. The Calcium 5 no-wash FLIPR assay kit (Molecular Devices #5000625) was performed as described in the kit instructions. Cells were incubated with Calcium 5 dye for 1 h at 37° C., 5% CO2 in the dark. After 45 min adaptation to RT assessment of agonist stimulation of intracellular Ca^2+ release was performed by addition of test compounds at concentrations obtained by serial dilution. Phospho-fingolimod was used as positive control. Antagonists were pre-incubated for 10 min with cells before addition of the agonist (phospho-fingolimod at EC80). Measurements were performed using a fluorometric imaging plate reader FLIPR® tetra (Molecular Devices). Agonist at the human S1P receptors were characterized by deducing EC50 (potency) values from a nonlinear fit to the measured fluorescence raw data after normalization to the reference agonist (phospho-fingolimod) curve.

human S1PR4 receptor = biological target: T2, human S1PR4 receptor (Homo sapiens, UniProt O95977); settings: (1): determined with method 1; read-out: S1P4 EC50
T2 construct: host or cells: CHO-K1
T2 sequence (O95977 1-384): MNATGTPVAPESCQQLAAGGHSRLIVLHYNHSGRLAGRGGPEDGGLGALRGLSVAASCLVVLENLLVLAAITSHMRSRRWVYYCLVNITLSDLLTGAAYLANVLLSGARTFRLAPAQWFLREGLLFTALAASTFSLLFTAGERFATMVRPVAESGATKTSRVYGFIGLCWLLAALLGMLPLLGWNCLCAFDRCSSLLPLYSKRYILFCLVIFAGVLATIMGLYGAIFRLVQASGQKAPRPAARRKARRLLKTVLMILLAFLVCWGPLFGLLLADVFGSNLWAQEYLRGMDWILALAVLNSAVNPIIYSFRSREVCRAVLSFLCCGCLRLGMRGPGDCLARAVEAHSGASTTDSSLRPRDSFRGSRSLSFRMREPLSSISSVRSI
Experimental: as §1, §2, §3, §4, §5

human S1PR5 receptor = biological target: T3, human S1PR5 receptor (Homo sapiens, UniProt Q9H228); settings: agonist potency, determined with method 1 (symbols A-D); read-out: S1P5 EC50 range
T3 construct: host or cells: CHO-K1
Experimental: as §1, §2, §3, §4, §5

human S1PR3 receptor = biological target: T4, human S1PR3 receptor (Homo sapiens, UniProt Q99500); settings: (1): determined with method 1; read-out: S1P3 EC50
T4 construct: host or cells: CHO-K1
Experimental: as §1, §2, §3, §4, §5

T4 sequence (Q99500 whole entry): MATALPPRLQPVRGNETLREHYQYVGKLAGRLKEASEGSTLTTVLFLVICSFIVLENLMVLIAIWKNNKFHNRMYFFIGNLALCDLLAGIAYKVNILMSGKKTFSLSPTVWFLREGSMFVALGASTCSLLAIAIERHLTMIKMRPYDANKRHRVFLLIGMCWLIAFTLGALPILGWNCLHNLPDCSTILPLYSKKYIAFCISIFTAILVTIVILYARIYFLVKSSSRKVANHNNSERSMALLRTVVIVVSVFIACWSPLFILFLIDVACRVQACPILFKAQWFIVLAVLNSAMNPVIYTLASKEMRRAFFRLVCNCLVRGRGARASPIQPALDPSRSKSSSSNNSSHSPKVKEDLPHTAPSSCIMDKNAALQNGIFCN
T3 sequence (Q9H228 whole entry): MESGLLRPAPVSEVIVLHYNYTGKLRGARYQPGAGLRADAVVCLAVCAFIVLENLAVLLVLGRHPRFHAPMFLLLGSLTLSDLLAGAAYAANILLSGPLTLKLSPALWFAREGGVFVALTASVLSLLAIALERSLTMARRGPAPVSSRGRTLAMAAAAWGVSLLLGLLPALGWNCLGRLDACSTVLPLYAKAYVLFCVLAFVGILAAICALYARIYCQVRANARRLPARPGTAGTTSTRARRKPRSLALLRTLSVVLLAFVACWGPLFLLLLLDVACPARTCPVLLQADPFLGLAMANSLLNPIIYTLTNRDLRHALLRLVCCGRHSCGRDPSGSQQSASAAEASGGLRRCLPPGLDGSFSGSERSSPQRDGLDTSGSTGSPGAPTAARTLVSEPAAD
T1 sequence (P21453 whole entry): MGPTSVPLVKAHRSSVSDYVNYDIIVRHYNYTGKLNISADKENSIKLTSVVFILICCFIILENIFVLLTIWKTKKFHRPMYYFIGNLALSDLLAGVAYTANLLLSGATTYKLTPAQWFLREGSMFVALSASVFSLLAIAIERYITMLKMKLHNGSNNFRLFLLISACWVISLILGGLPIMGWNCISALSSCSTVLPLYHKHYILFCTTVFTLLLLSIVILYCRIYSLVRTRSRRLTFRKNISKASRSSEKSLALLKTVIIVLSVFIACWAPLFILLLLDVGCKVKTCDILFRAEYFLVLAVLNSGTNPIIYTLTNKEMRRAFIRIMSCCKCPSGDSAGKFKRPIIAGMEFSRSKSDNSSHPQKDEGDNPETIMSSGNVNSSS

Row | Compound | pEC50 (human S1PR1 receptor) | pEC50 (human S1PR4 receptor) | pEC50 (human S1PR5 receptor) | pEC50 (human S1PR3 receptor)
1 | CC(CC(=O)O)N1CCc2nc(-c3ccc(OCc4ccc(F)c(F)c4)cc3)ncc2C1 (stereo not drawn) [Compound 42, 3-(2-(4-((3,4-difluorobenzyl)oxy)phenyl)-7,8-dihydropyrido[4,3-d]pyrimidin-6(5H)-yl)butanoic acid] | < 6.00 | – | > 8.00 | < 6.00
2 | Cc1cc(-c2ccc3c(n2)CCN(CC(=O)O)C3)ccc1OCc1ccc(C(F)(F)F)cc1 [Compound 112, 2-(2-(3-methyl-4-((4-(trifluoromethyl)benzyl)oxy)phenyl)-7,8-dihydro-1,6-naphthyridin-6(5H)-yl)acetic acid] | < 6.00 | – | 6.00 to 7.00 | < 6.00
3 | Cc1cc(-c2ccc3c(n2)CCN(C2CC(C(=O)O)C2)C3)ccc1OCc1ccccc1 (stereo not drawn) [Compound 117, 3-(2-(4-(benzyloxy)-3-methylphenyl)-7,8-dihydro-1,6-naphthyridin-6(5H)-yl)cyclobutanecarboxylic acid] | < 6.00 | – | 6.00 to 7.00 | < 6.00
4 | O=C(O)CCN1CCc2nc(-c3ccc(OCc4ccc(C(F)(F)F)cc4)cc3)ccc2C1 [Compound 152, 3-(2-(4-((4-trifluoromethylbenzyl)oxy)phenyl)-7,8-dihydro-1,6-naphthyridin-6(5H)-yl)propanoic acid] | < 6.00 | – | > 8.00 | < 6.00
5 | O=C(O)CCN1CCc2nc(-c3ccc(OCc4ccc(OC(F)(F)F)cc4)cc3)ccc2C1 [Compound 153, 3-(2-(4-((4-trifluoromethoxybenzyl)oxy)phenyl)-7,8-dihydro-1,6-naphthyridin-6(5H)-yl)propanoic acid] | < 6.00 | – | 6.00 to 7.00 | < 6.00
6 | O=C(O)CCN1CCc2ncc(-c3ccc(OCc4ccccc4)cc3)nc2C1 [Compound 221, 3-(3-(4-(benzyloxy)phenyl)-7,8-dihydropyrido[3,4-b]pyrazin-6(5H)-yl)propanoic acid] | < 6.00 | – | 5.00 to 6.00 | < 6.00
7 | O=C(O)CCCN1CCc2nc(-c3ccc(OCc4ccccc4)cc3)ccc2C1 [Compound 115, 4-(2-(4-(benzyloxy)phenyl)-7,8-dihydro-1,6-naphthyridin-6(5H)-yl)butanoic acid] | < 6.00 | – | > 8.00 | < 6.00
8 | O=C(O)CCN1CCc2ncc(-c3ccc(OCc4cccc(Cl)c4)cc3)nc2C1 [Compound 222, 3-(3-(4-((3-chlorobenzyl)oxy)phenyl)-7,8-dihydropyrido[3,4-b]pyrazin-6(5H)-yl)propanoic acid] | < 6.00 | – | 5.00 to 6.00 | < 6.00
9 | O=C(O)CCN1Cc2ccc(-c3cccc(OCc4cccc(F)c4)c3)nc2C1 [Compound 203, 3-(2-(3-((3-fluorobenzyl)oxy)phenyl)-5H-pyrrolo[3,4-b]pyridin-6(7H)-yl)propanoic acid] | < 6.00 | – | 5.00 to 6.00 | < 6.00
10 | O=C(O)CCN1Cc2cnc(-c3ccc(OCc4ccccc4)cc3)nc2C1 [Compound 100, 3-(2-(4-(benzyloxy)phenyl)-5H-pyrrolo[3,4-d]pyrimidin-6(7H)-yl)propanoic acid] | < 6.00 | – | 5.00 to 6.00 | < 6.00
11 | O=C(O)CCN1CCc2nc(-c3ccc(OCc4cccc(Cl)c4)cc3)ncc2C1 [Compound 72, 3-(2-(4-((3-chlorobenzyl)oxy)phenyl)-7,8-dihydropyrido[4,3-d]pyrimidin-6(5H)-yl)propanoic acid] | < 6.00 | – | > 8.00 | < 6.00
12 | CC(C)Oc1ccc(-c2ncc3c(n2)CCN(CCCC(=O)O)C3)cc1 [Compound 46, 4-(2-(4-isopropoxyphenyl)-7,8-dihydropyrido[4,3-d]pyrimidin-6(5H)-yl)butanoic acid] | < 6.00 | – | 5.00 to 6.00 | < 6.00
13 | CC(CN1CCc2nc(-c3ccc(OCc4ccccc4)c(F)c3)ccc2C1)C(=O)O (stereo not drawn) [Compound 103, 3-(2-(4-(benzyloxy)-3-fluorophenyl)-7,8-dihydro-1,6-naphthyridin-6(5H)-yl)-2-methylpropanoic acid] | < 6.00 | – | 7.00 to 8.00 | < 6.00
14 | O=C(O)CCCN1CCc2nc(C#Cc3ccccc3)ncc2C1 [Compound 48, 4-(2-(phenylethynyl)-7,8-dihydropyrido[4,3-d]pyrimidin-6(5H)-yl)butanoic acid] | < 6.00 | – | 5.00 to 6.00 | < 6.00
15 | O=C(O)CCN1CCc2nc(-c3ccc(OCc4cccc(OC(F)F)c4)cc3)ncc2C1 [Compound 92, 3-(2-(4-((3-(difluoromethoxy)benzyl)oxy)phenyl)-7,8-dihydropyrido[4,3-d]pyrimidin-6(5H)-yl)propanoic acid] | < 6.00 | – | 7.00 to 8.00 | < 6.00

Further lines, results first:

Row | pEC50 (human S1PR1 receptor) | pEC50 (human S1PR4 receptor) | pEC50 (human S1PR5 receptor) | pEC50 (human S1PR3 receptor) | Compound
16 | < 6.00 | < 6.00 | 6.00 to 7.00 | – | O=C(O)C1CCC(N2CCc3nc(-c4ccc(OCc5ccc(Cl)cc5)cc4)ncc3C2)C1 (stereo not drawn) [Compound 295, 3-(2-(4-((4-chlorobenzyl)oxy)phenyl)-7,8-dihydropyrido[4,3-d]pyrimidin-6(5H)-yl)cyclopentanecarboxylic acid]
17 | < 6.00 | < 6.00 | 6.00 to 7.00 | – | Cc1ccc(COc2ccc(-c3ncc4c(n3)CCN(CC(C)CC(=O)O)C4)cc2C)cc1 (stereo not drawn) [Compound 301, 3-methyl-4-[2-[3-methyl-4-(p-tolylmethoxy)phenyl]-7,8-dihydro-5H-pyrido[4,3-d]pyrimidin-6-yl]butanoic acid 2,2,2-trifluoroacetic acid salt]
18 | < 6.00 | < 6.00 | 7.00 to 8.00 | – | Cc1cc(-c2ncc3c(n2)CCN(C[C@@H](C)CC(=O)O)C3)ccc1OCc1ccccc1 [Compound 261, (S)-4-(2-(4-(benzyloxy)-3-methylphenyl)-7,8-dihydropyrido[4,3-d]pyrimidin-6(5H)-yl)-3-methylbutanoic acid]
19 | < 6.00 | – | 5.00 to 6.00 | < 6.00 | CC(CN1CCc2nc(-c3cccc(OCc4ccccc4)c3)ccc2C1)C(=O)O (stereo not drawn) [Compound 107]
20 | < 6.00 | – | 7.00 to 8.00 | < 6.00 | CC(CN1CCc2nc(-c3ccc(OCc4ccccc4)c(Cl)c3)ccc2C1)C(=O)O (stereo not drawn) [Compound 106, 3-(2-(4-(benzyloxy)-3-chlorophenyl)-7,8-dihydro-1,6-naphthyridin-6(5H)-yl)-2-methylpropanoic acid]
21 | < 6.00 | – | > 8.00 | < 6.00 | O=C(O)CCN1CCc2nc(-c3ccc(OCc4ccccc4C(F)F)cc3)ncc2C1 [Compound 78, 3-(2-(4-((2-difluoromethylbenzyl)oxy)phenyl)-7,8-dihydropyrido[4,3-d]pyrimidin-6(5H)-yl)propanoic acid]
22 | < 6.00 | – | > 8.00 | < 6.00 | O=C(O)CCN1CCc2nc(-c3ccc(OCc4ccc(Cl)c(Cl)c4)cc3)ncc2C1 [Compound 73, 3-(2-(4-((3,4-dichlorobenzyl)oxy)phenyl)-7,8-dihydropyrido[4,3-d]pyrimidin-6(5H)-yl)propanoic acid]
23 | > 6.00 | – | > 8.00 | < 6.00 | O=C(O)CCN1CCc2nc(-c3ccc(OCc4cccc(OC(F)F)c4)cc3)ccc2C1 [Compound 164, 3-(2-(4-((3-difluoromethoxybenzyl)oxy)phenyl)-7,8-dihydro-1,6-naphthyridin-6(5H)-yl)propanoic acid]
24 | > 6.00 | – | > 8.00 | < 6.00 | Cc1cc(COc2ccc(-c3ncc4c(n3)CCN(CCC(=O)O)C4)cc2)cc(OC(F)(F)F)c1 [Compound 95, 3-(2-(4-((3-methyl-5-(trifluoromethoxy)benzyl)oxy)phenyl)-7,8-dihydropyrido[4,3-d]pyrimidin-6(5H)-yl)propanoic acid]
25 | > 6.00 | – | > 8.00 | < 6.00 | CC(CN1CCc2nc(-c3ccc(OCc4cccc(F)c4)cc3)ccc2C1)C(=O)O (stereo not drawn) [Compound 109, 3-(2-(4-((3-fluorobenzyl)oxy)phenyl)-7,8-dihydro-1,6-naphthyridin-6(5H)-yl)-2-methylpropanoic acid]
